From patent publication US7759345B2, “Antitumoral derivatives of ET-743” (priority 2001, dated 2010)
Read-outs that look alike come from different tables or passages of the source.

Key:
SK-BR-3 = assay: Inhibition of cells growth by colorimetric assay (SRB), SK-BR-3; type: cell-based; conditions: for GI50: read-out: GI50 SK-BR3
In short: (§1)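 Human cancer cells (5×10^3/well) attached 18 h in RPMI 1640 10% FBS, then exposed 48 h at 37°C to compounds from 10 to 10^−8 μg/ml in DMSO/EtOH/PBS. TCA-fixed, SRB-stained, OD read at 490 nm; GI, TGI and LC derived from triplicate wells.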

HMEC1 = assay: Inhibition of cells growth by colorimetric assay (SRB), HMEC1; type: cell-based; conditions: for GI50: read-out: GI50 HMEC-1
In short: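 SRB read-out at 490 nm after 48 h drug exposure (10 to 10^−8 μg/ml) of cells plated at 5×10^3/well and attached 18 h in drug-free RPMI 1640/10% FBS. Triplicate means give GI, TGI (cytostatic) and LC (cytotoxic).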

Myelo = assay: In vitro toxicity, Myelo
Description: (§2) Toxicity was asssessed by the methods reported in Toxicology in Vitro, 15 (2001) 571-577, J. Luber Narod et al.: “Evaluation of the use of in vitro methodolodies as tools for screening new compounds for potential in vivo toxicity”.

LoVo-Dox = assay: Inhibition of cells growth by colorimetric assay (SRB), LoVo-Dox; type: cell-based; conditions: for GI50: read-out: GI50 LOVO-DOX
In short: as §1

Kidney = assay: In vitro toxicity, Kidney
Description: as §2

SK-MEL-28 = assay: Inhibition of cells growth by colorimetric assay (SRB), SK-MEL-28; type: cell-based; conditions: for GI50: read-out: GI50 MEL-28
In short: as §1

SK-OV-3 = assay: Inhibition of cells growth by colorimetric assay (SRB), SK-OV-3; type: cell-based; conditions: for GI50: read-out: GI50 SK-OV3
In short: as §1

A-549 = assay: Inhibition of cells growth by colorimetric assay (SRB), A-549; type: cell-based; conditions: for GI50: read-out: GI50 A-549
In short: as §1

DU-145 = assay: Inhibition of cells growth by colorimetric assay (SRB), DU-145; type: cell-based; conditions: for GI50: read-out: GI50 DU-145
In short: as §1

IGROV-ET = assay: Inhibition of cells growth by colorimetric assay (SRB), IGROV-ET; type: cell-based; conditions: for GI50: read-out: GI50 IGROV-ET
In short: as §1

Liver = assay: In vitro toxicity, Liver
Description: as §2

HT-29 = assay: Inhibition of cells growth by colorimetric assay (SRB), HT-29; type: cell-based; conditions: for GI50: read-out: GI50 HT-29
In short: as §1

Heart = assay: In vitro toxicity, Heart
Description: as §2

Skeletal = assay: In vitro toxicity, Skeletal
Description: as §2

LoVo = assay: Inhibition of cells growth by colorimetric assay (SRB), LoVo; type: cell-based; conditions: for GI50: read-out: GI50 LOVO
In short: as §1

IGROV-1 = assay: Inhibition of cells growth by colorimetric assay (SRB), IGROV-1; type: cell-based; conditions: for GI50: read-out: GI50 IGROV
In short: as §1

PANC-1 = assay: Inhibition of cells growth by colorimetric assay (SRB), PANC-1; type: cell-based; conditions: for GI50: read-out: GI50 PANC-1
In short: as §1

K-562 = assay: Inhibition of cells growth by colorimetric assay (SRB), K-562; type: cell-based; conditions: for GI50: read-out: GI50 K-562
In short: as §1

LNCaP = assay: Inhibition of cells growth by colorimetric assay (SRB), LNCaP; type: cell-based; conditions: SRB, 48 hours exposure
In short: as §1

[1] = LOVO-DOX, SRB, 48 hours exposure
[2] = IGROV-ET, SRB, 48 hours exposure

## COc1cc2c(cc1OC(=O)C(F)(F)C(F)(F)C(F)(F)F)CCN[C@]21CS[C@@H]2c3c(OC(C)=O)c(C)c4c(c3[C@H](COC1=O)N1C2[C@H]2c3c(cc(C)c(OC)c3O)C[C@@H]([C@@H]1O)N2C)OCO4 (stereo partly shown) [Compound 74]
SK-BR-3; Homo sapiens, SK-BR-3, 48 h
  GI50: 0.275 nM
SK-BR-3; Homo sapiens, SK-BR-3, 48 h, read-out: LC50 SK-BR3, SK-BR3, SRB, 48 hours exposure
  CC50: 4.18 nM
SK-BR-3; SK-BR3, SRB, 48 hours exposure
  TGI SK-BR3: 7.64E-10
HMEC1; HMEC-1, SRB, 48 hours exposure
  TGI HMEC-1: 1.45E-08
HMEC1; Homo sapiens, HMEC-1, 48 h
  GI50: 0.598 nM
HMEC1; Homo sapiens, HMEC-1, 48 h, read-out: LC50 HMEC-1, HMEC-1, SRB, 48 hours exposure
  LC50: 4700 nM
Myelo
  Toxicity Data Myelo: 3.30E-08
LoVo-Dox; Homo sapiens, 48 h
  GI50: 6.31 nM
LoVo-Dox; Homo sapiens, 48 h, read-out: LC50 LOVO-DOX, LOVO-DOX, SRB, 48 hours exposure
  CC50: 359 nM
LoVo-Dox; [1]
  TGI LOVO-DOX: 6.33E-08
Kidney
  Toxicity Data Kidney: 3.05E-08
SK-MEL-28; Homo sapiens, SK-MEL-28, 48 h
  GI50: 0.275 nM
SK-MEL-28; Homo sapiens, SK-MEL-28, 48 h, read-out: LC50 MEL-28, MEL-28, SRB, 48 hours exposure
  CC50: 0.994 nM
SK-MEL-28; MEL-28, SRB, 48 hours exposure
  TGI MEL-28: 5.22E-10
SK-OV-3; Homo sapiens, SK-OV-3, 48 h
  GI50: 0.248 nM
SK-OV-3; Homo sapiens, SK-OV-3, 48 h, read-out: LC50 SK-OV3, SK-OV3, SRB, 48 hours exposure
  LC50: 1.11 nM
SK-OV-3; SK-OV3, SRB, 48 hours exposure
  TGI SK-OV3: 4.76E-10
A-549; A-549, SRB, 48 hours exposure
  TGI A-549: 9.04E-10
A-549; Homo sapiens, A549, 48 h
  GI50: 0.399 nM
A-549; Homo sapiens, A549, 48 h, read-out: LC50 A-549, A-549, SRB, 48 hours exposure
  LC50 (concentration for 50% cell killing): 6.38 nM
DU-145; DU-145, SRB, 48 hours exposure
  TGI DU-145: 7.61E-10
DU-145; Homo sapiens, DU-145, 48 h
  GI50: 0.366 nM
DU-145; Homo sapiens, DU-145, 48 h, read-out: LC50 DU-145, DU-145, SRB, 48 hours exposure
  CC50: 2790 nM
IGROV-ET; Homo sapiens, 48 h
  GI50: 1.76 nM
IGROV-ET; Homo sapiens, 48 h, read-out: LC50 IGROV-ET, IGROV-ET, SRB, 48 hours exposure
  CC50: 19.7 nM
IGROV-ET; [2]
  TGI IGROV-ET: 4.69E-09
Liver
  Toxicity Data Liver: 3.07E-08
HT-29; HT-29, SRB, 48 hours exposure
  TGI HT-29: 8.35E-10
HT-29; Homo sapiens, HT-29, 48 h
  GI50: 0.354 nM
HT-29; Homo sapiens, HT-29, 48 h, read-out: LC50 HT-29, HT-29, SRB, 48 hours exposure
  LC50 (concentration for 50% cell killing): 10400 nM
Heart
  Toxicity Data Heart: 2.86E-08
Skeletal
  Toxicity Data Skeletal: 8.30E-10
LoVo; Homo sapiens, LoVo, 48 h
  GI50: 0.369 nM
LoVo; Homo sapiens, LoVo, 48 h, read-out: LC50 LOVO, LOVO, SRB, 48 hours exposure
  LC50 (concentration for 50% cell killing): 11 nM
LoVo; LOVO, SRB, 48 hours exposure
  TGI LOVO: 1.16E-09
IGROV-1; Homo sapiens, IGROV-1, 48 h
  GI50: 0.237 nM
IGROV-1; Homo sapiens, IGROV-1, 48 h, read-out: LC50 IGROV, IGROV, SRB, 48 hours exposure
  CC50: 0.911 nM
IGROV-1; IGROV, SRB, 48 hours exposure
  TGI IGROV: 4.65E-10
PANC-1; Homo sapiens, PANC-1, 48 h
  GI50: 0.313 nM
PANC-1; Homo sapiens, PANC-1, 48 h, read-out: LC50 PANC-1, PANC-1, SRB, 48 hours exposure
  LC50 (concentration for 50% net cell kill): 2.55 nM
PANC-1; PANC-1, SRB, 48 hours exposure
  TGI PANC-1: 6.77E-10
K-562; Homo sapiens, K562, 48 h
  GI50: 0.0526 nM
K-562; Homo sapiens, K562, 48 h, read-out: LC50 K-562, K-562, SRB, 48 hours exposure
  LC50 (50% cell killing): 0.661 nM
K-562; K-562, SRB, 48 hours exposure
  TGI K-562: 2.10E-10
LNCaP; Homo sapiens, LNCaP, 48 h, read-out: GI50 LNCAP, LNCAP
  GI50: 0.129 nM
LNCaP; Homo sapiens, LNCaP, 48 h, read-out: LC50 LNCAP, LNCAP
  CC50: 0.564 nM
LNCaP; LNCAP
  TGI LNCAP: 2.69E-10

## C=COC(=O)Oc1cc2c(cc1OC)[C@@]1(CS[C@@H]3c4c(OC(C)=O)c(C)c5c(c4[C@H](COC1=O)N1C3[C@H]3c4c(cc(C)c(OC)c4O)C[C@@H]([C@@H]1O)N3C)OCO5)NCC2 (stereo partly shown) [Compound 75]
SK-BR-3; SK-BR3, SRB, 48 hours exposure
  TGI SK-BR3: 3.21E-09
  GI50: 1.2 nM
SK-BR-3; SK-BR3, SRB, 48 hours exposure, read-out: LC50 SK-BR3
  CC50: 8.58 nM
HMEC1; HMEC-1, SRB, 48 hours exposure
  TGI HMEC-1: 5.77E-08
  GI50: 6.97 nM
Myelo
  Toxicity Data Myelo: 5.85E-08
LoVo-Dox; [1]
  TGI LOVO-DOX: 1.23E-07
  GI50: 42.6 nM
Kidney
  Toxicity Data Kidney: 3.86E-08
SK-MEL-28; MEL-28, SRB, 48 hours exposure
  LC50 (concentration killing 50% of cells): 11.7 nM
  TGI MEL-28: 4.82E-09
  GI50: 2 nM
SK-OV-3; SK-OV3, SRB, 48 hours exposure
  TGI SK-OV3: 1.04E-08
  GI50: 2.19 nM
A-549; A-549, SRB, 48 hours exposure
  TGI A-549: 8.23E-09
  GI50: 4.26 nM
A-549; A-549, SRB, 48 hours exposure, read-out: LC50 A-549
  LC50 (50% lethal concentration): 49 nM
DU-145; DU-145, SRB, 48 hours exposure
  TGI DU-145: 9.47E-10
  GI50: 0.563 nM
DU-145; DU-145, SRB, 48 hours exposure, read-out: LC50 DU-145
  CC50: 8330 nM
IGROV-ET; [2]
  TGI IGROV-ET: 6.58E-09
  GI50: 3.38 nM
IGROV-ET; IGROV-ET, SRB, 48 hours exposure, read-out: LC50 IGROV-ET
  CC50: 12 nM
Liver
  Toxicity Data Liver: 4.11E-08
HT-29; HT-29, SRB, 48 hours exposure
  TGI HT-29: 1.18E-08
  GI50: 3.89 nM
HT-29; HT-29, SRB, 48 hours exposure, read-out: LC50 HT-29
  CC50: 120 nM
Heart
  Toxicity Data Heart: 8.17E-08
Skeletal
  Toxicity Data Skeletal: 4.06E-09
LoVo; LOVO, SRB, 48 hours exposure
  LC50 (concentration killing 50% of cells): 12 nM
  TGI LOVO: 4.82E-09
  GI50: 2.25 nM
IGROV-1; IGROV, SRB, 48 hours exposure
  TGI IGROV: 1.63E-09
  GI50: 0.52 nM
IGROV-1; IGROV, SRB, 48 hours exposure, read-out: LC50 IGROV
  CC50: 10 nM
PANC-1; PANC-1, SRB, 48 hours exposure
  LC50 (concentration killing 50% of cells): 35.9 nM
  TGI PANC-1: 8.45E-09
  GI50: 3.04 nM
K-562; K-562, SRB, 48 hours exposure
  LC50 (50% lethal concentration): 4.16 nM
  TGI K-562: 7.42E-10
  GI50: 0.364 nM
LNCaP; LNCAP
  TGI LNCAP: 8.31E-10
LNCaP; LNCAP, read-out: GI50 LNCAP
  GI50: 0.579 nM
LNCaP; LNCAP, read-out: LC50 LNCAP
  CC50: 1.19 nM
